Experimental findings from patent publication US20080300243A1, “Amide Derivatives as Ion-Channel Ligands and Pharmaceutical Compositions and Methods of Using the Same” (priority 2005, published 2008) are described below.

One data set deals with VR1 (Homo sapiens, UniProt Q8NER1). Briefly: Calcium uptake assay, low pH (proton) stimulus. The class given is cell-based. Further details: expressed in transfected cells; host or cells: T-REx HEK 293 (Invitrogen), pcDNA5/TO vector. To be noted: 0.3 μM compound, low pH agonist, HEK 293 cells expressing hVR1; for inhibition at 0.3 µM: HEK293, read-out: Low pH % Inhib. @ 0.3 μM.
VR1, sequence (Q8NER1 whole entry): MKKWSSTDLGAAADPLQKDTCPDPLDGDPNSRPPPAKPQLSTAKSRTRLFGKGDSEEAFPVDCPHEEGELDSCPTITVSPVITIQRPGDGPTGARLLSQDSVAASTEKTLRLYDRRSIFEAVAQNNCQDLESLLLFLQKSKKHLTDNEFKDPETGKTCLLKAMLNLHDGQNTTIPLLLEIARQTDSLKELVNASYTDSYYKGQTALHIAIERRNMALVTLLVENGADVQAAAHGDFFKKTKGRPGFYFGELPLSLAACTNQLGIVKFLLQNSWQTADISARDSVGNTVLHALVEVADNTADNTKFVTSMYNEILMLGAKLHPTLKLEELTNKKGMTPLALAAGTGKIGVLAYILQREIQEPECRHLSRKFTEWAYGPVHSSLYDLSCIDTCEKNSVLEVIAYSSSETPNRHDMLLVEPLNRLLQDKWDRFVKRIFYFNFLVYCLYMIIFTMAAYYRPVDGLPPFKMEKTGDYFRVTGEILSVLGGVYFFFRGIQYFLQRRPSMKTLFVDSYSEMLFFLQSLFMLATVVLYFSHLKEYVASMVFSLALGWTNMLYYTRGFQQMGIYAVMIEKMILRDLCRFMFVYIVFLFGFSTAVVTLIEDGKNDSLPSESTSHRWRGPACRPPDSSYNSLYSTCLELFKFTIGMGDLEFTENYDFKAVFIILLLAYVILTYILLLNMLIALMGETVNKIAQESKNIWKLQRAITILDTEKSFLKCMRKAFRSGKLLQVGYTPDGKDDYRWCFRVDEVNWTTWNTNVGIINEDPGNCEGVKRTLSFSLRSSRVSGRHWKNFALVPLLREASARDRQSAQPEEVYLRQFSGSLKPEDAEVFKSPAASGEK

Data set [1] can be described thus: Half-life in human liver microsomes (HLM). The class given is in vitro ADME. The following applies: 1 μM compound, 0.78 mg/mL HLM, 37° C., NADPH; for half-life at 1 μM: human, human liver microsomes (HLM, HL101), pH 7.4. Here is the method:
Test compounds (1 μM) were incubated with 3.3 mM MgCl2 and 0.78 mg/mL HLM (HL101) in 100 mM potassium phosphate buffer (pH 7.4) at 37° C. on the 96-deep well plate. The reaction mixture was split into two groups, a non-P450 and a P450 group. NADPH was only added to the reaction mixture of the P450 group. An aliquot of samples of P450 group was collected at 0, 10, 30, and 60 min time point, where 0 min time point indicated the time when NADPH was added into the reaction mixture of P450 group. An aliquot of samples of non-P450 group was collected at −10 and 65 min time point. Collected aliquots were extracted with acetonitrile solution containing an internal standard. The precipitated protein was spun down in centrifuge (2000 rpm, 15 min). The compound concentration in supernatant was measured by LC/MS/MS system.
The half-life value was obtained by plotting the natural logarithm of the peak area ratio of compounds/internal standard versus time. The slope of the line of best fit through the points yields the rate of metabolism (k). This was converted to a half-life value using following equations:
Exemplary compounds of the invention were tested (1 μM), and were incubated with 3.3 mM MgCl2 and 0.78 mg/mL HLM (HL101) in 100 mM potassium phosphate buffer (pH 7.4) at 37° C. on the 96-deep well plate. The reaction mixture was split into two groups, a non-P450 and a P450 group. NADPH was only added to the reaction mixture of the P450 group. An aliquot of samples of the P450 group was collected at 0, 10, 30, and 60 minute time points, where the 0 minute time point indicated the time when NADPH was added into the reaction mixture of the P450 group. An aliquot of samples of the non-P450 group was collected at −10 and 65 minute time points. Collected aliquots were extracted with an acetonitrile solution containing an internal standard. The precipitated protein was spun down in a centrifuge (2000 rpm, 15 rain). The compound concentration in supernatant was measured by LC/MS/MS system. The half-life value (T1/2) was obtained by plotting the natural logarithm of the peak area ratio of compounds/internal standard versus time. The slope of the line of best fit through the points yields the rate of metabolism (k). This was converted to a half-life value using following equations: Half-life=ln 2/k.
In general terms: Liver microsomes are a subcellular fraction often used to study metabolism.

For the compound `Cc1cc(C#CC2CC2)ccc1C(=O)Nc1ccc2c(c1)OCC(CO)N2` (centres unmarked) [Compound 124], the inhibition at 0.3 µM at VR1 was determined as 112%. For the same compound, in data set [1], the half-life (in general, the time needed for the level to fall by half in the phase considered) at 1 μM is 1.01 h. In the case of `O=C(Nc1ccc2c(c1)OCC(CO)N2)c1ccc(C#CC2CCCC2)cc1F` (centres unmarked) [Compound 126], at VR1, the inhibition at 0.3 µM turned out to be 96%. Further, the half-life at 1 μM in data set [1] was 1.86 h. On the same counts, the results for `Cc1nc2cc(NC(=O)c3ccc(C#CC(C)(C)C)cc3C)ccc2s1` [Compound 162] are 89% and 1.43 h.

Take `O=C(Nc1ccc2c(c1)OC[C@@H](CO)O2)c1ccc(C#CC2CC2)cc1` [Compound 104]: on VR1, the inhibition at 0.3 µM came out at 91%. For the same compound, the half-life at 1 μM in data set [1] was 0.28 h.

For `O=C(Nc1cnc2ccccc2c1)c1ccc(C#CC(F)(F)F)cc1` [Compound 46], the half-life at 1 μM in data set [1] was 0.02 h. In the case of `O=C(Nc1ccc2c(c1)OCCN2)c1ccc(/C=C/C(F)(F)F)cc1` [Compound 63], the “Half Life” value in data set [1] turned out to be 0.4 h.

For the compound `Cc1cc(C#CC(C)(C)C)ccc1C(=O)Nc1ccc2c(c1)OC[C@@H](CO)N2` [Compound 184], the inhibition at 0.3 µM at VR1 came to 102%. This compound showed a half-life at 1 μM in data set [1] of 0.64 h. For the compound `O=C(Nc1ccc2c(c1)OCC(CO)N2)c1ccc(/C=C/C(F)(F)F)cc1Cl` (centres unmarked) [Compound 157], the inhibition at 0.3 µM on VR1 is 107%. In data set [1], this compound had a half-life at 1 μM of 1.37 h.

As for `O=C(Nc1ccc2c(c1)OCC(CO)O2)c1ccc(C#CC2CCCC2)cc1` (centres unmarked) [Compound 112], the inhibition at 0.3 µM on VR1 is 88%. Besides, in data set [1], the half-life at 1 μM is 0.8 h. For `CC(C)(C)C#Cc1ccc(C(=O)Nc2cccc3cnccc23)cc1OCCN1CCOCC1` [Compound 60], in data set [1], the “Half Life” value came out at 0.35 h.

For `CC(C)(C)C#Cc1ccc(C(=O)Nc2cnc3ccccc3c2)c(Cl)c1` [Compound 164], at VR1, the inhibition at 0.3 µM was determined as 105%. In data set [1], the half-life at 1 μM was 2.03 h. The matching figures for `O=C(Nc1ccc2c(c1)OCCO2)c1ccc(/C=C/C(F)(F)F)cc1` [Compound 34]: 97% and 1.15 h. The matching figures for `Cc1cc(C#CC(C)(C)C)ccc1C(=O)Nc1cccc2cnccc12` [Compound 163]: 98% and 1.16 h. The matching figures for `C/C(=C\c1ccc(C(=O)Nc2ccc3c(c2)OCCN3)cc1)C(F)(F)F` [Compound 93]: 105% and 0.65 h. For the compound `O=C(Nc1ccc2c(c1)OCC(CO)N2)c1c(F)cc(C#CC2CC2)cc1F` (centres unmarked) [Compound 129], the inhibition at 0.3 µM at VR1 was 104%. The half-life at 1 μM in data set [1] was 1.72 h. On to `Cc1cc(C#CC2CCCC2)ccc1C(=O)Nc1ccc2c(c1)OCC(CO)N2` (centres unmarked) [Compound 125], for which the inhibition at 0.3 µM at VR1 was determined as 112%. The compound further gave a half-life at 1 μM in data set [1] of 0.67 h. On the same counts, the results for `CC(C)(C)C#Cc1ccc(C(=O)Nc2ccc3c(c2)OCCO3)cn1` [Compound 22] are 106% and 1.18 h. Turning to `CC(C)(C)C#Cc1ccc(C(=O)Nc2ccc3c(c2)OCC(CO)N3)c(Cl)c1` (centres unmarked) [Compound 158], the inhibition at 0.3 µM on VR1 was found to be 107%. Moreover, the half-life at 1 μM in data set [1] is 1.43 h. On to `Cc1cc(/C=C/C(F)(F)F)ccc1C(=O)Nc1cccc2c(Cl)nccc12` [Compound 200], for which the inhibition at 0.3 µM on VR1 came out at 55%. On to `Cc1cc(C#CC(C)(C)C)ccc1C(=O)Nc1ccc2c(c1)C(=O)NC2=O` [Compound 213], for which, on VR1, the inhibition at 0.3 µM came to 88%. Turning to `CC(C)(C)C#Cc1ccc(C(=O)Nc2cccc3cnccc23)c(Cl)n1` [Compound 66], on VR1, the inhibition at 0.3 µM was 10%. Take `CC(C)(C)C#Cc1ccc(C(=O)Nc2ccc3c(c2)OCCO3)c(F)c1` [Compound 155]: the inhibition at 0.3 µM on VR1 is 95%.

Consider `Cc1cc(C#CC2CCCC2)ccc1C(=O)Nc1ccc2c(c1)OCCO2` [Compound 140], for which the inhibition at 0.3 µM on VR1 was found to be 33%.

With `O=C(Nc1ccc2c(c1)OCC(CO)O2)c1ccc(C#CC2CC2)cc1` (centres unmarked) [Compound 87], on VR1, the inhibition at 0.3 µM stood at 98%.

For the compound `O=C(Nc1cccc2cnccc12)c1ccc(C#CC2CCCC2)cc1` [Compound 101], the inhibition at 0.3 µM at VR1 came to 94%. Take `CC(C)/C=C/c1ccc(C(=O)Nc2ccc3ncccc3c2)cc1` [Compound 11]: the inhibition at 0.3 µM on VR1 was determined as 34%.

As for `CC(C)(C)C#Cc1ccc(C(=O)Nc2ccc3c(c2)OCO3)cn1` [Compound 26], on VR1, the inhibition at 0.3 µM was found to be 104%. On the same count and under the same terms, with `O=C(Nc1ccc2c(c1)OCC(CO)O2)c1ccc(/C=C/C(F)(F)F)cc1` (centres unmarked) [Compound 97] the figure was 101%; with `Cn1ccc2cc(NC(=O)c3ccc(/C=C/C(C)(C)C)cc3)ccc21` [Compound 42], 98%; with `Cc1nc2cc(NC(=O)c3ccc(C#CC(C)(C)C)cc3Cl)ccc2s1` [Compound 165], 107%. Regarding `CC(C)(C)C#Cc1cc(Cl)c(C(=O)Nc2ccc3c(c2)OCC(CO)O3)cc1F` (centres unmarked) [Compound 191], on VR1, the inhibition at 0.3 µM was 83%.

With `Cc1nc2cc(NC(=O)c3ccc(C#CC(C)(C)C)cc3F)ccc2s1` [Compound 173], on VR1, the inhibition at 0.3 µM was found to be 109%. Take `Cc1cc(C#CC(C)(C)C)ccc1C(=O)Nc1ccc2c(c1)OCC(CO)O2` (centres unmarked) [Compound 186]: the inhibition at 0.3 µM at VR1 worked out at 91%. The same measure, in the same setting: with `CC(C)(C)C#Cc1ccc(C(=O)Nc2ccc3c(c2)OCO3)cc1` [Compound 28] the figure was 102%. Same read-out and setting: then `O=C(Nc1ccc2c(c1)OC(CO)CO2)c1ccc(C#CC2CC2)cc1` (centres unmarked) [Compound 86], with 83%; and `Cn1ccc2ccc(NC(=O)c3ccc(C#CC(C)(C)C)nc3)cc21` [Compound 44], with 87%; and `Cc1cc(C#CC(C)(C)C)ccc1C(=O)Nc1cccc2c(Cl)cccc12` [Compound 199], with 67%.

On to `CC(C)(C)C#Cc1ccc(C(=O)Nc2cnc3ccccc3c2)cc1` [Compound 32], for which the “Low pH % Inhib. @ 0.3 μM” value on VR1 is given as 101%.

`Cc1cc(/C=C/C(F)(F)F)ccc1C(=O)Nc1ccc2c(c1)OCC(O)CN2` (centres unmarked) [Compound 189]: the inhibition at 0.3 µM on VR1 worked out at 87%. Same read-out and setting: with `Cc1cc(/C=C/C(F)(F)F)ccc1C(=O)Nc1ccc2c(c1)OCCO2` [Compound 190] the figure was 87%; with `CC(C)(C)C#Cc1ccc(C(=O)Nc2ccc3c(c2)OC[C@H](CO)N3)c(Cl)c1` [Compound 182], 103%; with `Cc1cc(/C=C/C(F)(F)F)ccc1C(=O)Nc1ccc2c(c1)OCC(CO)O2` (centres unmarked) [Compound 185], 92%. In the case of `O=C(Nc1ccc2c(c1)OCCO2)c1ccc(C#CC2CCCC2)cc1` [Compound 100], the inhibition at 0.3 µM at VR1 stood at 42%. With `CC(C)(O)COc1cc(C(=O)Nc2ccc3c(c2)OCCO3)ccc1C#CC1CC1` [Compound 110], the inhibition at 0.3 µM at VR1 is 1%. Still for that read-out and setting: with `Cn1ccc2cc(NC(=O)c3ccc(/C=C/C(F)(F)F)cc3)ccc21` [Compound 37] the figure was 17%; with `CC(C)(C)C#Cc1ccc(C(=O)Nc2cccc3cnccc23)cn1` [Compound 23], 98%; with `COc1cc(/C=C\C(F)(F)F)ccc1C(=O)Nc1ccc2c(c1)OCCO2` [Compound 121], 19%. The same measure, in the same setting: with `CC(C)(C)C#Cc1ccc(C(=O)Nc2ccc3c(c2)OC(F)(F)O3)cc1` [Compound 50] the figure was 5%.

Regarding `Cn1ccc2cc(NC(=O)c3ccc(C#CC(C)(C)C)nc3)ccc21` [Compound 25], at VR1, the inhibition at 0.3 µM is 105%. Still for that read-out and setting: with `O=C(Nc1ccc2c(c1)OCCN2)c1ccc(C#CC2CCCC2)cc1` [Compound 117] the figure was 98%.

Take `C/C(=C\C(F)(F)F)c1ccc(C(=O)Nc2ccc3c(c2)OCCO3)cc1` [Compound 99]: the inhibition at 0.3 µM at VR1 worked out at 94%. Consider `CN1CCCc2ccc(NC(=O)c3ccc(C#CC4CC4)cc3)cc21` [Compound 80], for which the inhibition at 0.3 µM on VR1 was 92%.

Take `CC(C)/C=C/c1ccc(C(=O)Nc2ccc3[nH]ccc3c2)cc1` [Compound 9]: at VR1, the inhibition at 0.3 µM was 37%. For the compound `CC(C)(C)C#Cc1ccc(C(=O)Nc2ccc3c(c2)OCCO3)cc1` [Compound 30], the inhibition at 0.3 µM on VR1 was 105%. On the same count and under the same terms, then `Cc1cc(C#CC(C)(C)C)ccc1C(=O)Nc1cnc2[nH]ccc2c1` [Compound 212], with 97%. On the same count and under the same terms, then `Cc1cc2c(NC(=O)c3ccc(/C=C/C(F)(F)F)cc3)cccc2cn1` [Compound 114], with 90%.
